From patent publication US7855290B2, “Pyridine derivatives and pyrimidine derivatives (3)” (Eisai R&D Management Co., Ltd., priority 2005, dated 2010)

Legend:
[1] = target: T1, His6-HGFR (HGFR cytoplasmic domain) (Homo sapiens, UniProt P08581); assay: Inhibitory activity against HGFR tyrosine kinase activity (HTRF); assay type: biochemical; conditions: biotin-poly(GT), ATP, 30° C. 10 min
T1 construct: made in house; host or cells: Sf9 insect cells (Spodoptera frugiperda), baculovirus, pFastBac-HT vector
T1 sequence (P08581 956-1390 limits assumed): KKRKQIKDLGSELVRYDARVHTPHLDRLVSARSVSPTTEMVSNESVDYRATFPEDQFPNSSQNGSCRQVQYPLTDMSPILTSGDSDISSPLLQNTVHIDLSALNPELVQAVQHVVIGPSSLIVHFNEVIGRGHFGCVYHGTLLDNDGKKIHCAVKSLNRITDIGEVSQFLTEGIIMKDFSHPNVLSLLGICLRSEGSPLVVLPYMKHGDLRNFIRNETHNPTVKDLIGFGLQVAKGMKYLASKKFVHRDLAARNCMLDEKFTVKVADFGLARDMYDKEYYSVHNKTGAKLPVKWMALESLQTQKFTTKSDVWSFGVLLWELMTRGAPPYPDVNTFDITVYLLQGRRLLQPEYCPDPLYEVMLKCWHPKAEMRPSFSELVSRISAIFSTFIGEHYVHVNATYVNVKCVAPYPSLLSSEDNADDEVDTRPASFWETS
Procedure, shortened: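 Sf9-expressed, Ni-NTA-purified N-terminal His6-tagged HGFR cytoplasmic domain (from Lys974), 30 ng, phosphorylates 250 ng biotin-poly(GT) in Hepes pH 7.4 with MgCl2, MnCl2 and Na3VO4. Reaction started with 4 μM ATP stock, run 10 min at 30° C, stopped with EDTA. Phosphotyrosine is detected by HTRF.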

[2] = test system: Human gastric cancer cells (MKN-45); assay: Inhibitory activity against the proliferation of human gastric cancer cells (MKN-45); assay type: cell-based; conditions: 72 h, MKN-45, 1% FBS RPMI1640, 3 days, Cell Counting Kit-8
Procedure, shortened: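 MKN-45 cells seeded overnight in RPMI1640 with 1% FBS, then exposed to compound for 3 days at 37° C, 5% CO2. Viability read with CCK-8 after about 1.5 hrs, absorbance at 450 nm (reference 660 nm).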

Compound	IC50 [1] [nM]	IC50 [2] [nM]
O=C(Nc1cc(Oc2ccc(NC(=O)C3(C(=O)Nc4ccc(F)cc4)CC3)c(F)c2)ccn1)N1CCOCC1 [Example 63, N-[2-Fluoro-4-({2-[(morpholin-4-ylcarbonyl)amino]pyridin-4-yl}oxy)phenyl]-N′-(4-fluorophenyl)cyclopropane-1,1-dicarboxamide]	14	54
O=C(Nc1cc(Oc2ccc(NC(=O)C3(C(=O)Nc4ccc(F)cc4)CC3)c(F)c2)ccn1)N1CCC(N2CCC2)CC1 [Example 9, N-{4-[(2-{[(4-Azetidin-1-ylpiperidin-1-yl)carbonyl]amino}pyridin-4-yl)oxy]-2-fluorophenyl}-N′-(4-fluorophenyl)cyclopropane-1,1-dicarboxamide]	53	26
CN(C)C1CN(C2CCN(C(=O)Nc3cc(Oc4ccc(NC(=O)C5(C(=O)Nc6ccc(F)cc6)CC5)cc4)ccn3)CC2)C1 [Example 38, N-[4-({2-[({4-[3-(Dimethylamino)azetidin-1-yl]piperidin-1-yl}carbonyl)amino]pyridin-4-yl}oxy)phenyl]-N′-(4-fluorophenyl)cyclopropane-1,1-dicarboxamide]	52	52
O=C(Nc1cc(Oc2ccc(NC(=O)C3(C(=O)Nc4ccc(F)cc4)CC3)cc2)ccn1)N1CCC(CN2CCC2)CC1 [Example 27, N-(4-{[2-({f [4-(Azetidin-1-ylmethyl)piperidin-1-yl]carbonyl}amino)pyridin-4-yl]oxy}phenyl)-N′-(4-fluorophenyl)cyclopropane-1,1-dicarboxamide]	59	48
CN(C)CC1CN(C(=O)Nc2cc(Oc3ccc(NC(=O)C4(C(=O)Nc5ccc(F)cc5)CC4)c(F)c3F)ccn2)C1 [Example 107, N-[4-({2-[({3-[(Dimethylamino)methyl]azetidine-1-yl}carbonyl)amino]pyridin-4-yl}oxy)-2,3-difluorophenyl]-N′-(4-fluorophenyl)cyclopropane-1,1-dicarboxamide]	61	21
CN1CC(N2CCN(C(=O)Nc3cc(Oc4ccc(NC(=O)C5(C(=O)Nc6ccc(F)cc6)CC5)cc4F)ccn3)CC2)C1 [Example 22, N-(3-Fluoro-4-{[2-({[4-(1-methylazetidin-3-yl)piperazin-1-yl]carbonyl}amino)pyridin-4-yl]oxy}phenyl)-N′-(4-fluorophenyl)cyclopropane-1,1-dicarboxamide]	50	13
O=C(Nc1cc(Oc2ccc(NC(=O)C3(C(=O)Nc4ccc(F)cc4)CC3)c(F)c2)ccn1)N1CCCC1 [Example 62, N-(4-Fluorophenyl)-N′-[2-fluoro-4-({2-[(pyrrolidin-1-ylcarbonyl)amino]pyridin-4-yl}oxy)phenyl]cyclopropane-1,1-dicarboxamide]	20	25
O=C(Nc1cc(Oc2ccc(NC(=O)C3(C(=O)Nc4ccc(F)cc4)CC3)c(F)c2)ccn1)N1CC(N2CCC2)C1 [Example 73, N-[4-({2-[(1,3′-Biazetidin-1′-ylcarbonyl)amino]pyridin-4-yl}oxy)-2-fluorophenyl]-N′-(4-fluorophenyl)cyclopropane-1,1-dicarboxamide]	105	50
CN(C)C1CN(C2CCN(C(=O)Nc3cc(Oc4ccc(NC(=O)C5(C(=O)Nc6ccccc6)CC5)c(F)c4)ccn3)CC2)C1 [Example 55]	120	43
CN(C)C1CCN(C(=O)Nc2cc(Oc3ccc(NC(=O)C4(C(=O)Nc5ccc(F)cc5)CC4)cc3F)ccn2)CC1 [Example 23, N-(4-{[2-({[4-(Dimethylamino)piperidin-1-yl]carbonyl}amino)pyridin-4-yl]oxy}-3-fluorophenyl)-N′-(4-fluorophenyl)cyclopropane-1,1-dicarboxamide]	45	36
CN(C)C1CCN(C(=O)Nc2cc(Oc3cc(F)c(NC(=O)C4(C(=O)Nc5ccc(F)cc5)CC4)cc3F)ccn2)CC1 [Example 103, N-(4-{[2-({[4-(Dimethylamino)piperidin-1-yl]carbonyl}amino)pyridin-4-yl]oxy}-2,5-difluorophenyl)-N′-(4-fluorophenyl)cyclopropane-1,1-dicarboxamide]	57	5.8
O=C(Nc1cc(Oc2ccc(NC(=O)C3(C(=O)Nc4ccc(F)cc4)CC3)c(F)c2)ccn1)N1CCC(CN2CCCC2)CC1 [Example 40, N-(4-Fluorophenyl)-N′-(2-fluoro-4-{[2-({[4-(pyrrolidin-1-ylmethyl)piperidin-1-yl]carbonyl}amino)pyridin-4-yl]oxy}phenyl)cyclopropane-1,1-dicarboxamide]	55	17
O=C(Nc1cc(Oc2ccc(NC(=O)C3(C(=O)Nc4ccc(F)cc4)CC3)c(F)c2)ccn1)N1CCC(N2CCCC2)CC1 [Example 4, N-(4-Fluorophenyl)-N′-{2-fluoro-4-[(2-{[(4-pyrrolidin-1-ylpiperidin-1-yl)carbonyl]amino}pyridin-4-yl)oxy]phenyl}cyclopropane-1,1-dicarboxamide]	45	21
CN1CCC(N(C)C(=O)Nc2cc(Oc3ccc(NC(=O)C4(C(=O)Nc5ccccc5)CC4)c(F)c3)ccn2)CC1 [Example 48, N-(2-Fluoro-4-{[2-({[methyl(1-methylpiperidin-4-yl)amino]carbonyl}amino)pyridin-4-yl]oxy}phenyl)-N′-phenylcyclopropane-1,1-dicarboxamide]	63	17
CCN(CC)CCCNC(=O)Nc1cc(Oc2ccc(NC(=O)C3(C(=O)Nc4ccc(F)cc4)CC3)cc2C)ccn1 [Example 45, N-[4-({2-[({[3-(Diethylamino)propyl]amino}carbonyl)amino]pyridin-4-yl}oxy)-3-methylphenyl]-N′-(4-fluorophenyl)cyclopropane-1,1-dicarboxamide]	240	500
O=C(Nc1cc(Oc2ccc(NC(=O)C3(C(=O)Nc4ccc(F)cc4)CC3)cc2F)ccn1)N1CCC(CN2CCC2)CC1 [Example 26, N-(4-{[2-({[4-(Azetidin-1-ylmethyl)piperidin-1-yl]carbonyl}amino)pyridin-4-yl]oxy}-3-fluorophenyl)-N′-(4-fluorophenyl)cyclopropane-1,1-dicarboxamide]	58	19
CN1CCC(N(C)C(=O)Nc2cc(Oc3ccc(NC(=O)C4(C(=O)Nc5ccc(F)cc5)CC4)cc3F)ccn2)CC1 [Example 1, N-(3-Fluoro-4-{[2-({[methyl(1-methylpiperidin-4-yl)amino]carbonyl}amino)pyridin-4-yl]oxy}phenyl)-N′-(4-fluorophenyl)cyclopropane-1.1-dicarboxamide]	66	13
CN(C)CCN1CCN(C(=O)Nc2cc(Oc3ccc(NC(=O)C4(C(=O)Nc5ccc(F)cc5)CC4)c(F)c3)ccn2)CC1 [Example 2, N-[4-({2-[({4-[2-(Dimethylamino)ethyl]piperazin-1-yl}carbonyl)amino]pyridin-4-yl}oxy)-2-fluorophenyl]-N′-(4-fluorophenyl)cyclopropane-1,1-dicarboxamide]	55	18
CN(C)CC1CCN(C(=O)Nc2cc(Oc3ccc(NC(=O)C4(C(=O)Nc5ccc(F)cc5)CC4)c(F)c3)ccn2)CC1 [Example 8, N-[4-({2-[({4-[(Dimethylamino)methyl]piperidin-1-yl}carbonyl)amino]pyridin-4-yl}oxy)-2-fluorophenyl]-N′-(4-fluorophenyl)cyclopropane-1,1-dicarboxamide]	48	20
COC1CN(C(=O)Nc2cc(Oc3ccc(NC(=O)C4(C(=O)Nc5ccc(F)cc5)CC4)cc3F)ccn2)C1 [Example 79]	14	15
O=C(Nc1cc(Oc2cc(F)c(NC(=O)C3(C(=O)Nc4ccc(F)cc4)CC3)cc2F)ncn1)N1CC(CO)C1 [Example 99, N-(2,5-Difluoro-4-{[4-({[3-(hydroxymethyl)azetidin-1-yl]carbonyl}amino)pyrimidin-6-yl]oxy}phenyl)-N′-(4-fluorophenyl)cyclopropane-1,1-dicarboxamide]	33	18
CN1CCN(C2CCN(C(=O)Nc3cc(Oc4ccc(NC(=O)C5(C(=O)Nc6ccc(F)cc6)CC5)cc4F)ccn3)CC2)CC1 [Example 20, N-(3-Fluoro-4-{[2-({[-4-(4-methylpiperazin-1-yl)piperidin-1-yl]-carbonyl}amino)pyridin-4-yl]oxy}phenyl)-N′-(4-fluorophenyl)cyclopropane-1,1-dicarboxamide]	59	15
CN(C)C1CN(C(=O)Nc2cc(Oc3ccc(NC(=O)C4(C(=O)Nc5ccc(F)cc5)CC4)c(F)c3)ccn2)C1 [Example 76, N-(4-{[2-({[3-(Dimethylamino)azetidin-1-yl]carbonyl}amino)pyridin-4-yl]oxy}-2-fluorophenyl)-N′-(4-fluorophenyl)cyclopropane-1,1-dicarboxamide]	45	19
CN(C)[C@@H]1CCN(C(=O)Nc2cc(Oc3ccc(NC(=O)C4(C(=O)Nc5ccccc5)CC4)c(F)c3)ccn2)C1 [Example 59, N-(4-{[2-({[(3R)-3-(Dimethylamino)pyrrolidin-1-yl]carbonyl}amino)pyridin-4-yl]oxy}-2-fluorophenyl)-N′-phenylcyclopropane-1,1-dicarboxamide]	75	44
CN1CCN(C2CCN(C(=O)Nc3cc(Oc4ccc(NC(=O)C5(C(=O)Nc6ccc(F)cc6)CC5)cc4)ccn3)CC2)CC1 [Example 32, N-(4-Fluorophenyl)-N′-(4-{[2-({[4-(4-methylpiperazin-1-yl)piperidin-1-yl]carbonyl}amino)pyridin-4-yl]oxy}phenyl)cyclopropane-1,1-dicarboxamide]	50	27
